“And” between values parts separate entries of the source, which are not always exact repeats. Equal entries are not always repeated.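 Five compound concentrations were applied to cells in 96-well plates for 48 hours; endpoints were derived by simple linear interpolation of the resulting dose-response curve. GI50: concentration for 50% inhibition of growth. Definition used: TGI = concentration required for complete inhibition of growth.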
Tested on: MALME-3M melanoma
Assay: NCI-60 cell line screen, 48 h

Row | Structure (SMILES) | GI50 | TGI
1 | CCN(CC)CCOc1ccc(/C(=C(\Cl)c2ccccc2)c2ccccc2)cc1 | 1.21 µM and 1.43 µM | 3.88 µM and 2.99 µM
2 | CCN1CCC(O)(C(C(=O)O)c2ccccc2)CC1 (stereo not drawn) |  | > 100 µM
3 | CC1=CC(=Nc2ccc(N(CCCl)CCCl)cc2)C=C(C)C1=O | 1.84 µM | 6.49 µM
4 | CN(C)S(=O)(=O)Nc1nnc(S(N)(=O)=O)s1 |  | > 100 µM

Tested on: NCI-H226 lung
Assay: NCI-60 cell line screen, 48 h

Row | Structure (SMILES) | GI50 | TGI
5 | OCc1c[nH]c2ccccc12 | 17.4 µM | 48.1 µM
6 | CCN(CC)CCOc1ccc(/C(=C(\Cl)c2ccccc2)c2ccccc2)cc1 | 5.46 µM and 4.01 µM | 12.9 µM and 16.3 µM
7 | CCN1CCC(O)(C(C(=O)O)c2ccccc2)CC1 (stereo not drawn) |  | > 100 µM
8 | CC1=CC(=Nc2ccc(N(CCCl)CCCl)cc2)C=C(C)C1=O | 1.2 µM | 4.83 µM
9 | CN(C)S(=O)(=O)Nc1nnc(S(N)(=O)=O)s1 |  | > 100 µM

Tested on: CCRF-CEM leukemia
Assay: NCI-60 cell line screen, 48 h

Row | Structure (SMILES) | GI50 | TGI
10 | OCc1c[nH]c2ccccc12 | 26.9 µM | > 100 µM
11 | CCN1CCC(O)(C(C(=O)O)c2ccccc2)CC1 (stereo not drawn) |  | > 100 µM
12 | CC1=CC(=Nc2ccc(N(CCCl)CCCl)cc2)C=C(C)C1=O | 0.187 µM | 5.21 µM

Tested on: SK-MEL-5 melanoma
Assay: NCI-60 cell line screen, 48 h

Row | Structure (SMILES) | GI50 | TGI
13 | OCc1c[nH]c2ccccc12 | 14.4 µM | 30.1 µM
14 | CCN(CC)CCOc1ccc(/C(=C(\Cl)c2ccccc2)c2ccccc2)cc1 | 0.808 µM and 1.55 µM | 1.5 µM and 2.88 µM
15 | CCN1CCC(O)(C(C(=O)O)c2ccccc2)CC1 (stereo not drawn) |  | > 100 µM
16 | CC1=CC(=Nc2ccc(N(CCCl)CCCl)cc2)C=C(C)C1=O | 1.72 µM | 5.17 µM
17 | CN(C)S(=O)(=O)Nc1nnc(S(N)(=O)=O)s1 |  | > 100 µM

Tested on: BT-549 breast
Assay: NCI-60 cell line screen, 48 h

Row | Structure (SMILES) | GI50 | TGI
18 | OCc1c[nH]c2ccccc12 | 28.9 µM | 73.3 µM
19 | CCN(CC)CCOc1ccc(/C(=C(\Cl)c2ccccc2)c2ccccc2)cc1 | 5.48 µM and 2.91 µM | 11.9 µM and 12.1 µM
20 | CCN1CCC(O)(C(C(=O)O)c2ccccc2)CC1 (stereo not drawn) |  | > 100 µM
21 | CC1=CC(=Nc2ccc(N(CCCl)CCCl)cc2)C=C(C)C1=O | 1.46 µM | 3.16 µM
22 | CN(C)S(=O)(=O)Nc1nnc(S(N)(=O)=O)s1 |  | > 100 µM

Tested on: HS 578T breast
Assay: NCI-60 cell line screen, 48 h

Row | Structure (SMILES) | GI50 | TGI
23 | OCc1c[nH]c2ccccc12 | 33.9 µM | > 100 µM
24 | CCN(CC)CCOc1ccc(/C(=C(\Cl)c2ccccc2)c2ccccc2)cc1 | 5.25 µM and 3.15 µM | 19.4 µM and 17.7 µM
25 | CCN1CCC(O)(C(C(=O)O)c2ccccc2)CC1 (stereo not drawn) |  | > 100 µM
26 | CC1=CC(=Nc2ccc(N(CCCl)CCCl)cc2)C=C(C)C1=O | 2.08 µM | 7.73 µM
27 | CN(C)S(=O)(=O)Nc1nnc(S(N)(=O)=O)s1 |  | > 100 µM

Tested on: LOX IMVI melanoma
Assay: NCI-60 cell line screen, 48 h

Row | Structure (SMILES) | GI50 | TGI
28 | OCc1c[nH]c2ccccc12 | 16.2 µM | 32.7 µM
29 | CCN(CC)CCOc1ccc(/C(=C(\Cl)c2ccccc2)c2ccccc2)cc1 | 0.916 µM and 1.67 µM | 1.89 µM and 3.22 µM
30 | CCN1CCC(O)(C(C(=O)O)c2ccccc2)CC1 (stereo not drawn) |  | > 100 µM

Tested on: EKVX NSCLC
Assay: NCI-60 cell line screen, 48 h

Row | Structure (SMILES) | GI50 | TGI
31 | OCc1c[nH]c2ccccc12 | 15.5 µM | 63.3 µM
32 | CCN(CC)CCOc1ccc(/C(=C(\Cl)c2ccccc2)c2ccccc2)cc1 | 5.74 µM and 3.44 µM | 13 µM and 17.3 µM
33 | CCN1CCC(O)(C(C(=O)O)c2ccccc2)CC1 (stereo not drawn) |  | > 100 µM
34 | CC1=CC(=Nc2ccc(N(CCCl)CCCl)cc2)C=C(C)C1=O | 3.31 µM | 35 µM
35 | CN(C)S(=O)(=O)Nc1nnc(S(N)(=O)=O)s1 |  | > 100 µM

Tested on: SW-620 colon
Assay: NCI-60 cell line screen, 48 h

Row | Structure (SMILES) | GI50 | TGI
36 | OCc1c[nH]c2ccccc12 | 17.9 µM | 36.8 µM
37 | CCN(CC)CCOc1ccc(/C(=C(\Cl)c2ccccc2)c2ccccc2)cc1 | 1.11 µM and 1.74 µM | 2.56 µM and 3.73 µM
38 | CCN1CCC(O)(C(C(=O)O)c2ccccc2)CC1 (stereo not drawn) |  | > 100 µM
39 | CC1=CC(=Nc2ccc(N(CCCl)CCCl)cc2)C=C(C)C1=O | 0.816 µM | 4.6 µM
40 | CN(C)S(=O)(=O)Nc1nnc(S(N)(=O)=O)s1 |  | > 100 µM

Tested on: NCI-H522 lung
Assay: NCI-60 cell line screen, 48 h

Row | Structure (SMILES) | GI50 | TGI
41 | OCc1c[nH]c2ccccc12 | 16.7 µM | 37.1 µM
42 | CCN(CC)CCOc1ccc(/C(=C(\Cl)c2ccccc2)c2ccccc2)cc1 | 3.09 µM and 1.47 µM | 10 µM and 3.02 µM
43 | CCN1CCC(O)(C(C(=O)O)c2ccccc2)CC1 (stereo not drawn) |  | > 100 µM
44 | CN(C)S(=O)(=O)Nc1nnc(S(N)(=O)=O)s1 |  | > 100 µM

Tested on: SF-539 CNS
Assay: NCI-60 cell line screen, 48 h

Row | Structure (SMILES) | GI50 | TGI
45 | OCc1c[nH]c2ccccc12 | 19.3 µM | 46.1 µM
46 | CCN(CC)CCOc1ccc(/C(=C(\Cl)c2ccccc2)c2ccccc2)cc1 | 1.77 µM and 1.87 µM | 5.49 µM and 4.29 µM
47 | CC1=CC(=Nc2ccc(N(CCCl)CCCl)cc2)C=C(C)C1=O | 0.448 µM | 8.71 µM
48 | CN(C)S(=O)(=O)Nc1nnc(S(N)(=O)=O)s1 |  | > 100 µM

Tested on: 786-0 renal
Assay: NCI-60 cell line screen, 48 h

Row | Structure (SMILES) | GI50 | TGI
49 | OCc1c[nH]c2ccccc12 | 33.7 µM | 93.3 µM
50 | CCN(CC)CCOc1ccc(/C(=C(\Cl)c2ccccc2)c2ccccc2)cc1 | 0.94 µM and 1.7 µM | 1.81 µM and 3.17 µM
51 | CC1=CC(=Nc2ccc(N(CCCl)CCCl)cc2)C=C(C)C1=O | 0.457 µM | 2.39 µM
52 | CN(C)S(=O)(=O)Nc1nnc(S(N)(=O)=O)s1 |  | > 100 µM

Tested on: HCC-2998 colon
Assay: NCI-60 cell line screen, 48 h

Row | Structure (SMILES) | GI50 | TGI
53 | OCc1c[nH]c2ccccc12 | 20.2 µM | 41 µM
54 | CCN(CC)CCOc1ccc(/C(=C(\Cl)c2ccccc2)c2ccccc2)cc1 | 2 µM and 2.4 µM | 7.35 µM and 6.41 µM
55 | CCN1CCC(O)(C(C(=O)O)c2ccccc2)CC1 (stereo not drawn) |  | > 100 µM
56 | CC1=CC(=Nc2ccc(N(CCCl)CCCl)cc2)C=C(C)C1=O | 2.29 µM | 9.83 µM
57 | CN(C)S(=O)(=O)Nc1nnc(S(N)(=O)=O)s1 |  | > 100 µM

Tested on: MDA-MB-435
Assay: NCI-60 cell line screen, 48 h

Row | Structure (SMILES) | GI50 | TGI
58 | OCc1c[nH]c2ccccc12 | 19.8 µM | 48.2 µM
59 | CCN(CC)CCOc1ccc(/C(=C(\Cl)c2ccccc2)c2ccccc2)cc1 | 1.54 µM and 2.2 µM | 5.78 µM and 7.08 µM
60 | CCN1CCC(O)(C(C(=O)O)c2ccccc2)CC1 (stereo not drawn) |  | > 100 µM
61 | CC1=CC(=Nc2ccc(N(CCCl)CCCl)cc2)C=C(C)C1=O | 1.67 µM | 4.55 µM
62 | CN(C)S(=O)(=O)Nc1nnc(S(N)(=O)=O)s1 |  | > 100 µM

Tested on: SNB-19 CNS
Assay: NCI-60 cell line screen, 48 h

Row | Structure (SMILES) | GI50 | TGI
63 | OCc1c[nH]c2ccccc12 | 33 µM | > 100 µM
64 | CCN(CC)CCOc1ccc(/C(=C(\Cl)c2ccccc2)c2ccccc2)cc1 | 5.41 µM and 2.25 µM | 11.9 µM and 5.41 µM
65 | CCN1CCC(O)(C(C(=O)O)c2ccccc2)CC1 (stereo not drawn) |  | > 100 µM
66 | CC1=CC(=Nc2ccc(N(CCCl)CCCl)cc2)C=C(C)C1=O | 2.81 µM | > 65.8 µM
67 | CN(C)S(=O)(=O)Nc1nnc(S(N)(=O)=O)s1 |  | > 100 µM
